{
  "source": "patent US8685455B2",
  "about": "“Oil-in-water emulsions containing lignan-class compounds and compositions containing the same” (Suntory Holdings Limited, priority 2005, dated 2014)",
  "experiment": "Solubilities of sesamin, episesamin and their mixture in various oils or fats",
  "assay_type": "physicochemical",
  "method": "To prepare the lignan-class compound containing emulsion of the present invention, liquid in which a lignan-class compound is dissolved (oil phase) is first prepared. As already mentioned, a sesame oil or the like may be used as the liquid, alternatively, the liquid may be prepared by adding a powdered form of lignan-class compound to a solvent oil or fat, mixing the mixture, and fully dissolving the powdered form to the solvent while agitating the mixture while heating. The blending ratio between the lignan-class compound and the fat or oil varies with the type of the lignan-class compound and the fat, or oil that serves as a solvent and it can be set appropriately in consideration of this fact. The assignees of the subject application have discovered that two lignan-class compounds, sesamin and episesamin, and a mixture thereof had different solubilities in different fats or oils (see Table 1).",
  "data": [
    {"smiles": "c1cc2c(cc1[C@H]1OC[C@H]3[C@@H]1CO[C@@H]3c1ccc3c(c1)OCO3)OCO2", "note": "[Sesamin, sesamin]", "values": [
      {"measurement": "Solubilities (%) in DG", "result": 1.25, "unit": "%"},
      {"measurement": "Solubilities (%) in MCT-1", "result": 4.0, "unit": "%"},
      {"measurement": "Solubilities (%) in MCT-2", "result": 2.0, "unit": "%"},
      {"measurement": "Solubilities (%) in Olive oil", "result": 0.75, "unit": "%"},
      {"measurement": "Solubilities (%) in Wheat germ oil", "result": 0.75, "unit": "%"}
    ]},
    {"smiles": "c1cc2c(cc1[C@H]1OC[C@H]3[C@@H]1CO[C@@H]3c1ccc3c(c1)OCO3)OCO2", "note": "[Episesamin, episesamin]", "values": [
      {"measurement": "Solubilities (%) in DG", "result": 1.0, "unit": "%"},
      {"measurement": "Solubilities (%) in MCT-1", "result": 2.5, "unit": "%"},
      {"measurement": "Solubilities (%) in MCT-2", "result": 2.5, "unit": "%"},
      {"measurement": "Solubilities (%) in Olive oil", "result": 0.5, "unit": "%"},
      {"measurement": "Solubilities (%) in Wheat germ oil", "result": 0.75, "unit": "%"}
    ]}
  ]
}
